In assay [1] the test system is rat neutrophils. Description: release of lysozyme from rat neutrophils stimulated with fMLP/CB. In kind it is cell-based. The following applies: fMLP (1 μM)/CB (5 μg mL^−1); for IC50: means ± s.e.m. (n = 3-5).
In assay [2] the test system is rat neutrophils. Description: release of β-glucuronidase from rat neutrophils stimulated with fMLP/CB. In kind it is cell-based. The following applies: fMLP (1 μM)/CB (5 μg mL^−1); for IC50: means ± s.e.m. (n = 3-5).
Assay [3] deals with RAW 264.7 macrophage-like cells. Description: NO production (nitrite accumulation, Griess reaction) in RAW 264.7 cells in response to LPS. The following applies: LPS (1 μg mL^−1), 24 h; for IC50: read-out: IC50, accumulation of NO2^− in culture media, RAW 264.7 cells. Format: cell-based. On the procedure: (§1) Treatment of RAW 264.7 macrophage-like cells with LPS (1 μg mL^−1) or N9 microglial cells with LPS (10 ng mL^−1)/IFN-γ (10 U mL^−1) for 24 h induced NO production as assessed by measuring the accumulation of nitrite, a stable metabolite of NO, in the media, based on the Griess reaction. […] 1400 W was used in this experiment as a positive control.

Assay [4] deals with rat neutrophils. Description: PMA-induced superoxide anion generation in rat neutrophils. In kind it is cell-based. The following applies: PMA (3 nM). How it is done:
(§2) FMLP (0.3 μM)/CB (5 μg mL^−1) or phorbol myristate acetate (PMA) (3 nM) stimulated superoxide anion generation in rat neutrophils. […] Trifluoperazine was used in this experiment as a positive control.

Assay [5] concerns rat neutrophils. Description: fMLP/CB-induced superoxide anion generation in rat neutrophils. In kind it is cell-based. How it is done: as §2
In the next assay the test system is N9 microglial cells. Description: NO production (nitrite accumulation, Griess reaction) in N9 cells in response to LPS/IFN-γ. Conditions: LPS (10 ng mL^−1)/IFN-γ (10 U mL^−1); for IC50: read-out: IC50, accumulation of NO2^− in culture media, N9 cells. Format: cell-based. On the procedure: as §1
Assay [6] has as its system mast cells and neutrophils. Conditions: background statement; cited from earlier work.

Turning to Garcinielliptone I [Compound 4], the “% of inhibition at the highest concentration, Lysozyme release” value in the assay with rat neutrophils [1] (highest concentration) was −1.6 ± 7.3%. The concentration for half-maximal inhibition (IC50) in the assay on rat neutrophils [1] is more than 30 µM; in the assay on rat neutrophils [2], more than 30 µM; in assay [3], more than 30 µM; in the assay on rat neutrophils [4], more than 30 µM; in the assay with rat neutrophils [5] (fMLP (0.3 μM)/CB (5 μg mL^−1)) it was more than 30 µM; in the assay on N9 microglial cells (24 h) it was 7.4 ± 0.2 µM. In the assay on rat neutrophils [2] (highest concentration), the “% of inhibition at the highest concentration, β-Glucuronidase release” value is given as 15.6 ± 2.7%. Further, the “% of inhibition at the highest concentration, NO2^− accumulation, RAW 264.7 cells” value in assay [3] amounted to 17.4 ± 1.5%. Moreover, the “% of inhibition at the highest concentration, superoxide anion, PMA” value in the assay on rat neutrophils [4] is −76.3 ± 7.3%. In addition, the “% of inhibition at the highest concentration, superoxide anion, fMLP/CB” value in the assay with rat neutrophils [5] (fMLP (0.3 μM)/CB (5 μg mL^−1), highest concentration) turned out to be 2.8 ± 5.7%. The “effect on production of NO induced by LPS/IFN-γ in N9 cells (in words)” value with N9 microglial cells is “potent inhibitory effect”.
Consider `CC(=N)NCc1cccc(CN)c1` [Compound 1400W, N-(3-Aminomethyl) benzylacetamidine, reference compound], for which the IC50 in assay [3] is 3 ± 0.2 µM; with N9 microglial cells (24 h), 2.2 ± 0.1 µM.
For the compound `CC(C)=CCC1CC2(CC=C(C)C)C(=O)C(C(=O)C(C)C)(C(=O)C(C=CC(C)(C)O)=C2O)C1(C)C` (centres unmarked) [Compound 1, Garcinielliptone F], the “inhibitory effect on release of lysozyme (in words)” value in the assay on rat neutrophils [1] is given as “potent inhibitory effects”. The IC50 was 20 ± 1.3 µM in the assay with rat neutrophils [1]; 26.9 ± 2.6 µM in the assay with rat neutrophils [2]; more than 10 µM in assay [3]; more than 30 µM in the assay on rat neutrophils [4]; 17 ± 0.9 µM with rat neutrophils [5] (fMLP (0.3 μM)/CB (5 μg mL^−1)); more than 3 µM in the assay on N9 microglial cells (24 h). Further, the “inhibitory effect on release of β-glucuronidase (in words)” value in the assay on rat neutrophils [2] is reported as “potent inhibitory effects”. In addition, in assay [3], the “% of inhibition at the highest concentration, NO2^− accumulation, RAW 264.7 cells” value amounted to 22.9 ± 2.9%. The “% of inhibition at the highest concentration, superoxide anion, PMA” value in the assay with rat neutrophils [4] is on record as 46.8 ± 4.5%. Further, the “inhibitory effect on fMLP/CB-induced superoxide anion generation (in words)” value with rat neutrophils [5] (fMLP/CB (5 μg mL^−1)) is recorded as “potent inhibitory effect”. For the same compound, the “% of inhibition at the highest concentration, NO2^− accumulation, N9 cells” value in the assay on N9 microglial cells (24 h, highest concentration) was determined as 31.2 ± 0.7%.
`CC(C)=CCC1=C2O[C@H](C(C)(C)O)C[C@@]23C[C@H](CC=C(C)C)C(C)(C)[C@@](C(=O)C(C)C)(C1=O)C3=O` [Garsubellin A]: in assay [6], the “inhibition of chemical mediators release from mast cells and neutrophils (in words)” value is reported as “strongly inhibited”.
Take `CN1CCN(CCCN2c3ccccc3Sc3ccc(C(F)(F)F)cc32)CC1` [Trifluoperazine, reference compound]: the half-maximal inhibitory concentration (IC50) came out at 13.2 ± 0.7 µM in the assay on rat neutrophils [1] (Neutrophil); 10.6 ± 0.9 µM with rat neutrophils [2] (Neutrophil); 2.7 ± 0.6 µM in the assay with rat neutrophils [4] (Neutrophil); 6.6 ± 0.2 µM with rat neutrophils [5] (Neutrophil, fMLP (0.3 μM)/CB (5 μg mL^−1)).
Take `CC(C)=CC[C@H]1C[C@]2(CC=C(C)C)C(=O)[C@]3(CC=C(C)C)O[C@@]1(C(=O)C(C)C)[C@@]2(O)C(C)(C)C3=O` [garcinielliptin oxide]: in assay [6], the “inhibition of chemical mediators release from mast cells and neutrophils (in words)” value is listed as “strongly inhibited”.

The values above are taken from patent US20060205808A1, “Anti-inflammatory and cure for ageing, Alzheimer's disease on phloroglucinol derivatives” (Kaohsiung Medical University, priority 2005, published 2006).
